Results: patent US11419806B2, “Prebiotic oral care methods using a saccharide” (Colgate-Palmolive Company, priority 2013, dated 2022)

Legend:
Assay in all cases: Twenty-four hour biofilm growth (crystal violet)
Type in all cases: cell-based
S. salivarius = system: S. salivarius
Procedure: (§1) The increase in biofilm formation of the tested bacteria in response to selected saccharides (D-turanose, D-lactitol, myo-inositol, and N-acetyl-D-mannosamine) was investigated by setting up biofilm growth assays in a nutritionally rich medium (brain heart infusion broth (BHI), Oxoid), over 24 hours. Late exponential growth phase liquid cultures were prepared by transferring the respective bacterium from blood agar plates to BHI and overnight incubation at 37° C. in an anaerobic atmosphere for A. viscosus, V. parvula, P. gingivalis, P. intermedia, T. forsythia, A. naeslundii, and C. sputigena, and in a 5% CO2 environment for S. salivarius, S. sanguinis, S. mitis, A. actinomycetemcomitans, S. mutans, and S. gordonii. Overnight cultures were transferred to BHI and adjusted to a concentration of 1×10^7 CFU/ml by measuring the optical density at 600 nm (OD600) (BioRad SmartSpec 3000). For each strain, 200 μl of the bacterial suspension was added to a 96-well plate containing 20 μl of the respective saccharides. Final concentrations of the saccharides were set to 5, 10, 20 and 25 μmol/ml. […] Additionally, for each bacterium tested, a background control, to correct for background staining, was added. This background control contained the bacterium tested and 0.03 weight % chlorhexidine, as an antiseptic. Plates were incubated as previously described. After 24 hrs the supernatant was removed from the wells of the plates. The wells were washed twice with 1×100 μL PBS (phosphate buffered saline), fixed for 20 minutes with 96% vol. ethanol (96% vol. solution in water) and the biofilm retained at the bottom of the wells was stained with 1 weight % crystal violet (1 weight % solution in water). The bound dye was dissolved with 5% vol. acetic acid (5% vol. solution in water). Quantification of the stained biofilm was performed by measuring the absorbance at 630 nm using a Multiskan Ascent microplate reader (Thermo Scientific).
(§2) The experiment was carried out on three different days (thus providing 3 biological replicas) and each day the experiment was carried out in quadruple (thus providing 4 technical replicas) for each combination of bacterium with saccharide and for each control. For each day and for each combination, the average (mean) of the values obtained (as detailed above) for the four technical replicas was calculated to provide a single value for each combination on each day. The values shown in Tables 7a, 7b, 8a, 8b, below, are the average (mean) of the three single values obtained for each combination of bacterium with saccharide.

T. forsythia = system: T. forsythia
Procedure: as §1, §2

C. sputigena = system: C. sputigena
Procedure: as §1, §2

S. gordonii = system: S. gordonii
Procedure: as §1, §2

P. intermedia = system: P. intermedia
Procedure: as §1, §2

A. naeslundii = system: A. naeslundii
Procedure: as §1, §2

S. mitis = system: S. mitis
Procedure: as §1, §2

A. viscosus = system: A. viscosus
Procedure: as §1, §2

S. sanguinis = system: S. sanguinis
Procedure: as §1, §2

S. mutans = conditions: S mutans
Procedure: as §1, §2

A. actinomycetemcomitans = system: A. actinomycetemcomitans
Procedure: as §1, §2

V. parvula = system: V. parvula
Procedure: as §1, §2

P. gingivalis = system: P. gingivalis
Procedure: as §1, §2

**Q.** What does the source list for `CC(=O)N[C@H](C=O)[C@@H](O)[C@H](O)[C@H](O)CO` [N-acetyl-D-mannosamine, 2-acetamido-2-deoxy-D-mannose]?
**A.** biofilm growth: OD 630 nm at 24 hrs divided by OD of control (control = 1) (S. salivarius; 5 μmol/ml): 0.6489; biofilm growth: OD 630 nm at 24 hrs divided by OD of control (control = 1) (S. salivarius; 10 μmol/ml): 0.6824; biofilm growth: OD 630 nm at 24 hrs divided by OD of control (control = 1) (S. salivarius; 20 μmol/ml): 0.3314; biofilm growth: OD 630 nm at 24 hrs divided by OD of control (control = 1) (S. salivarius; 25 μmol/ml): 0.3520; biofilm growth: OD 630 nm at 24 hrs divided by OD of control (control = 1) (T. forsythia; 5 μmol/ml): 0.6028; biofilm growth: OD 630 nm at 24 hrs divided by OD of control (control = 1) (T. forsythia; 10 μmol/ml): 0.9745; biofilm growth: OD 630 nm at 24 hrs divided by OD of control (control = 1) (T. forsythia; 20 μmol/ml): 0.4562; biofilm growth: OD 630 nm at 24 hrs divided by OD of control (control = 1) (T. forsythia; 25 μmol/ml): 0.5433; biofilm growth: OD 630 nm at 24 hrs divided by OD of control (control = 1) (C. sputigena; 5 μmol/ml): 0.9108; biofilm growth: OD 630 nm at 24 hrs divided by OD of control (control = 1) (C. sputigena; 10 μmol/ml): 0.9323; biofilm growth: OD 630 nm at 24 hrs divided by OD of control (control = 1) (C. sputigena; 20 μmol/ml): 0.8871; biofilm growth: OD 630 nm at 24 hrs divided by OD of control (control = 1) (C. sputigena; 25 μmol/ml): 0.8822; biofilm growth: OD 630 nm at 24 hrs divided by OD of control (control = 1) (S. gordonii; 5 μmol/ml): 0.7178; biofilm growth: OD 630 nm at 24 hrs divided by OD of control (control = 1) (S. gordonii; 10 μmol/ml): 1.0041; biofilm growth: OD 630 nm at 24 hrs divided by OD of control (control = 1) (S. gordonii; 20 μmol/ml): 0.5487; biofilm growth: OD 630 nm at 24 hrs divided by OD of control (control = 1) (S. gordonii; 25 μmol/ml): 0.6746; biofilm growth: OD 630 nm at 24 hrs divided by OD of control (control = 1) (P. intermedia; 5 μmol/ml): 1.1437; biofilm growth: OD 630 nm at 24 hrs divided by OD of control (control = 1) (P. intermedia; 10 μmol/ml): 1.5179; biofilm growth: OD 630 nm at 24 hrs divided by OD of control (control = 1) (P. intermedia; 20 μmol/ml): 1.0689; biofilm growth: OD 630 nm at 24 hrs divided by OD of control (control = 1) (P. intermedia; 25 μmol/ml): 1.2252; biofilm growth: OD 630 nm at 24 hrs divided by OD of control (control = 1) (A. naeslundii; 5 μmol/ml): 1.3056; biofilm growth: OD 630 nm at 24 hrs divided by OD of control (control = 1) (A. naeslundii; 10 μmol/ml): 1.4302; biofilm growth: OD 630 nm at 24 hrs divided by OD of control (control = 1) (A. naeslundii; 20 μmol/ml): 1.1823; biofilm growth: OD 630 nm at 24 hrs divided by OD of control (control = 1) (A. naeslundii; 25 μmol/ml): 1.2220; biofilm growth: OD 630 nm at 24 hrs divided by OD of control (control = 1) (S. mitis; 5 μmol/ml): 2.4328; biofilm growth: OD 630 nm at 24 hrs divided by OD of control (control = 1) (S. mitis; 10 μmol/ml): 4.2456; biofilm growth: OD 630 nm at 24 hrs divided by OD of control (control = 1) (S. mitis; 20 μmol/ml): 2.1524; biofilm growth: OD 630 nm at 24 hrs divided by OD of control (control = 1) (S. mitis; 25 μmol/ml): 3.0078; biofilm growth: OD 630 nm at 24 hrs divided by OD of control (control = 1) (A. viscosus; 5 μmol/ml): 0.8126; biofilm growth: OD 630 nm at 24 hrs divided by OD of control (control = 1) (A. viscosus; 10 μmol/ml): 0.9165; biofilm growth: OD 630 nm at 24 hrs divided by OD of control (control = 1) (A. viscosus; 20 μmol/ml): 0.5093; biofilm growth: OD 630 nm at 24 hrs divided by OD of control (control = 1) (A. viscosus; 25 μmol/ml): 0.6492; biofilm growth: OD 630 nm at 24 hrs divided by OD of control (control = 1) (S. sanguinis; 5 μmol/ml): 1.5651; biofilm growth: OD 630 nm at 24 hrs divided by OD of control (control = 1) (S. sanguinis; 10 μmol/ml): 2.4890; biofilm growth: OD 630 nm at 24 hrs divided by OD of control (control = 1) (S. sanguinis; 20 μmol/ml): 0.5600; biofilm growth: OD 630 nm at 24 hrs divided by OD of control (control = 1) (S. sanguinis; 25 μmol/ml): 1.0289; biofilm growth: OD 630 nm at 24 hrs divided by OD of control (control = 1) (S. mutans; 5 μmol/ml): 0.8572; biofilm growth: OD 630 nm at 24 hrs divided by OD of control (control = 1) (S. mutans; 10 μmol/ml): 0.8329; biofilm growth: OD 630 nm at 24 hrs divided by OD of control (control = 1) (S. mutans; 20 μmol/ml): 0.7015; biofilm growth: OD 630 nm at 24 hrs divided by OD of control (control = 1) (S. mutans; 25 μmol/ml): 0.6922; biofilm growth: OD 630 nm at 24 hrs divided by OD of control (control = 1) (A. actinomycetemcomitans; 5 μmol/ml): 0.9519; biofilm growth: OD 630 nm at 24 hrs divided by OD of control (control = 1) (A. actinomycetemcomitans; 10 μmol/ml): 1.0569; biofilm growth: OD 630 nm at 24 hrs divided by OD of control (control = 1) (A. actinomycetemcomitans; 20 μmol/ml): 0.6532; biofilm growth: OD 630 nm at 24 hrs divided by OD of control (control = 1) (A. actinomycetemcomitans; 25 μmol/ml): 0.7158; biofilm growth: OD 630 nm at 24 hrs divided by OD of control (control = 1) (V. parvula; 5 μmol/ml): 0.3811; biofilm growth: OD 630 nm at 24 hrs divided by OD of control (control = 1) (V. parvula; 10 μmol/ml): 1.0958; biofilm growth: OD 630 nm at 24 hrs divided by OD of control (control = 1) (V. parvula; 20 μmol/ml): 0.1297; biofilm growth: OD 630 nm at 24 hrs divided by OD of control (control = 1) (V. parvula; 25 μmol/ml): 0.3718; biofilm growth: OD 630 nm at 24 hrs divided by OD of control (control = 1) (P. gingivalis; 5 μmol/ml): 0.6683; biofilm growth: OD 630 nm at 24 hrs divided by OD of control (control = 1) (P. gingivalis; 10 μmol/ml): 0.8031; biofilm growth: OD 630 nm at 24 hrs divided by OD of control (control = 1) (P. gingivalis; 20 μmol/ml): 0.7270; biofilm growth: OD 630 nm at 24 hrs divided by OD of control (control = 1) (P. gingivalis; 25 μmol/ml): 0.8345
